Experimental data: patent publication US8541420B2, “Ketolide compounds having antimicrobial activity” (priority 2009, dated 2013)

What was measured:
S. pneumoniae = experiment: MIC by standard CLSI agar dilution method, macrolide sensitive and resistant S. pneumoniae; type: cell-based; conditions: 18 hrs at 37° C.; for MIC S. pneumoniae Ery Susc. (49619): strain Ery Susc. (49619); for MIC S. pneumoniae HL-ermB (3773): strain HL-ermB (3773), HL is High level resistance; for MIC S. pneumoniae ermB (786): strain ermB (786); for MIC S. pneumoniae mefA (772): strain mefA (772)
Procedure: (§1) The antibacterial activities of ketolide compounds of invention were evaluated by determining the minimal inhibitory concentration (MIC) according to standard CLSI agar dilution method. The media used for preculture and main culture were Tryptic Soya broth (Difco) and Mueller Hinton medium (Difco), respectively. The Mueller Hinton agar was supplemented with 5% sheep blood for streptococci and pneumococci, and with haemoglobin as well as NAD (nicotinamide adenine dinucleotide) for Haemophilus influenzae, respectively. Overnight cultures were diluted with buffered saline (pH 7.2) to the final cell density of 5×10^6-10^7 CFU/ml, and each bacterial suspension was applied with a replicator (Denley's multipoint inoculator, UK) onto a series of Mueller-Hinton agar plates containing antibacterial agents at various concentrations. Final inoculum was approximately 10^4 CFU/spot. The plates were incubated for 18 hrs at 37° C. The MIC was defined as the lowest concentration of an antibacterial agent that inhibits the development of visible microbial growth on agar.

S. pyogenes = experiment: MIC by standard CLSI agar dilution method, macrolide sensitive and resistant S. pyogenes; type: cell-based; parameters: MIC S. pyogenes Ery Susc. (801) / MIC S. pyogenes HLermB (3530): unit not given beside the values; conditions: 18 hrs at 37° C.; for MIC S. pyogenes Ery Susc. (801): strain Ery Susc. (801); for MIC S. pyogenes HLermB (3530): strain HLermB (3530), HL is High level resistance; for MIC S. pyogenes ermTR (810/806): strain ermTR (810/806); for MIC S. pyogenes mefA (806/763): strain mefA (806/763)
Procedure: as §1

Molecule	MIC S. pneumoniae Ery Susc. (49619) (S. pneumoniae)	MIC S. pneumoniae HL-ermB (3773) (S. pneumoniae)	MIC S. pneumoniae ermB (786) (S. pneumoniae)	MIC S. pneumoniae mefA (772) (S. pneumoniae)	MIC S. pyogenes Ery Susc. (801) (S. pyogenes)	MIC S. pyogenes HLermB (3530) (S. pyogenes)	MIC S. pyogenes ermTR (810/806) (S. pyogenes)	MIC S. pyogenes mefA (806/763) (S. pyogenes)
CC[C@H]1OC(=O)[C@H](C)C(=O)[C@H](C)[C@@H](O[C@@H]2O[C@H](C)C[C@H](N(C)C)[C@H]2O)[C@](C)(OC)C[C@@H](C)C(=O)[C@H](C)[C@H]2N(CCCCn3cnc(-c4cccnc4)c3)C(=O)O[C@]12C [Telithromycin, reference compound]	0.007	4.0	0.5	1.0	0.03	16.0	0.03	0.06
(11S,21R)-3-Decladinosyl-11,12-dideoxy-6-O-methyl-3-oxo-12,11-{oxycarbonyl-[E-amino-(2-(pyrimidin-2-yl)-1,3,4-thiadiazol-5-yl-methyl)oxy-imino-methylene]}-erythromycin A [Example 2]	0.007	1.0	0.06	0.25	0.007	0.25	0.015	0.06
(11S, 21R)-3-Decladinosyl-11,12-dideoxy-6-O-methyl-3-oxo-12,11-{oxycarbonyl-[E-amino-(2-(pyridin-2-yl)-1,3,4-thiadiazol-5-yl-methyl)oxy-imino-methylene]}-erythromycin A [Example 1]	0.007	1.0	0.06	0.06	0.015	0.5	0.015	0.06
